Test results from ChEMBL document CHEMBL1148258, “Synthesis of OSW-1 analogs with modified side chains and their antitumor activities” (Bioorg Med Chem Lett, 2004).

Tests used:
Assay type in all cases: functional, cell-based
BEL-7404 tumor cell line = assay: In vitro antitumor activity of compound against 7404 cell line (human liver carcinoma cells)
MCF7 = assay: In vitro antitumor activity of compound against MCF-7 cell line (human breast cancer cells)
AGS = assay: In vitro antitumor activity of compound against AGS cell line (human stomach cancer cells)

Row | Compound | IC50 (BEL-7404 tumor cell line; Homo sapiens, BEL-7404) [nM] | IC50 (MCF7; Homo sapiens, MCF7) [nM] | IC50 (AGS; Homo sapiens, AGS) [µM] | IC50 (BEL-7404 tumor cell line; bel-7404) [nM] | IC50 (MCF7; mcf7) [nM] | IC50 (AGS; ags) [µM]
1 | COc1ccc(C(=O)OC2C(OC3C(O)COC(O[C@H]4CC5C6CC=C7C[C@@H](O)CC[C@]7(C)C6CC([C@H](C)C(=O)CCC(C)C)[C@]5(C)[C@@H]4O)C3OC(C)=O)OCC(O)C2O)cc1 (stereo partly drawn) | 100 | 270 | 1.42 |  |  | 
2 | COc1ccc(C(=O)OC2C(OC3C(O)COC(O[C@H]4CC5C6CC=C7C[C@@H](O)CC[C@]7(C)C6CC([C@H](C)CCCC(C)C)[C@]5(C)[C@@H]4O)C3OC(C)=O)OCC(O)C2O)cc1 (stereo partly drawn) | 63 | 60 | 1.38 |  |  | 
3 | CCCC(=O)[C@@H](C)C1CC2C(CC=C3C[C@@H](O)CC[C@@]32C)C2C[C@H](OC3OCC(O)C(OC4OCC(O)C(O)C4OC(=O)c4ccc(OC)cc4)C3OC(C)=O)[C@@H](O)[C@]21C (stereo partly drawn) | 32 | 20 | 1.92 |  |  | 
4 | COc1ccc(C(=O)OC2C(OC3C(O)COC(O[C@H]4CC5C6CC=C7C[C@@H](O)CC[C@]7(C)C6CC([C@H](C)C(O)CCC(C)C)[C@]5(C)[C@@H]4O)C3OC(C)=O)OCC(O)C2O)cc1 (stereo partly drawn) | 1860 | 1790 | 7.26 |  |  | 
5 | COc1ccc(C(=O)OC2C(OC3C(O)COC(O[C@H]4CC5C6CC=C7C[C@@H](O)CC[C@]7(C)C6CC([C@H](C)C(C)=O)[C@]5(C)[C@@H]4O)C3OC(C)=O)OCC(O)C2O)cc1 (stereo partly drawn) | 2900 | 6610 | 6.98 |  |  | 
6 | CISPLATIN |  |  |  | 8370 | 18700 | 24.1
